The record followed here is PubChem BioAssay (NCI).

“And” between values parts separate entries of the source, which are not always exact repeats. Equal values may be shown once.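 Briefly, cells in 96-well plates were exposed to five compound concentrations for 48 h, and endpoints were estimated by linear interpolation. GI50 = concentration required for 50% inhibition of growth. TGI: total growth inhibition.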 A value given as a limit tells only on which side of the number the result lay.

Some test systems named below: MCF7 breast; PC-3 prostate; DU-145 prostate; NCI/ADR-RES ovarian; T-47D breast.
Test in all cases: NCI tumour cell line growth inhibition, 48 h

For `C=C1C(=O)O[C@H]2[C@H]1CC/C(COC(=O)c1ccc(Br)cc1)=C\CC[C@@]1(C)O[C@@H]21`, the GI50 in the assay with MCF7 breast was 0.645 µM; with PC-3 prostate, 1.69 µM; in the assay on DU-145 prostate it was 1.35 µM; in the assay on NCI/ADR-RES ovarian it was 2.34 µM. For the same molecule, the TGI in the assay on MCF7 breast is 2.97 µM; in the assay with PC-3 prostate, 3.19 µM; in the assay on DU-145 prostate, 2.65 µM; in the assay with NCI/ADR-RES ovarian it was 8.68 µM.
As to `COc1cc(C2CC(c3cc(Cl)c(C)cc3O)=NN2c2ccc(S(N)(=O)=O)cc2)cc(OC)c1OC` (configuration not stated), the GI50 in the assay on MCF7 breast was 2.77 µM; with PC-3 prostate, 2.27 µM; in the assay with DU-145 prostate, 3.4 µM; in the assay with NCI/ADR-RES ovarian it was 2.58 µM; in the assay on T-47D breast, 2.28 µM. For the same molecule, the TGI with MCF7 breast was determined as 10.3 µM; with PC-3 prostate it was 8.94 µM; with DU-145 prostate, 11.2 µM; in the assay on NCI/ADR-RES ovarian, 7.53 µM; in the assay on T-47D breast, 7.06 µM.
In the case of `C=C(C)[C@@H]1CC[C@@H]2C(=CC[C@]3(C)C([C@H](C)CC/C=C(/C)C(=O)O)CC[C@@]23C)[C@@]1(C)CCC(=O)O` (some centres not stated), the TGI in the assay on MCF7 breast was greater than 100 µM; with PC-3 prostate, 65.9 µM; with DU-145 prostate it was 60.5 µM; with T-47D breast it was greater than 100 µM.
Turning to `COc1ccc(C(=O)C(CN(C)C)c2ccccc2)cc1` (configuration not stated), the GI50 with MCF7 breast is 1.9 µM; in the assay with PC-3 prostate, 4.6 µM; in the assay with NCI/ADR-RES ovarian, 2.7 µM; with T-47D breast, 2.75 µM. The TGI with MCF7 breast turned out to be 5.98 µM; with PC-3 prostate, 17.4 µM; with NCI/ADR-RES ovarian it was 6.97 µM; in the assay with T-47D breast, 9.01 µM.
Turning to `CCN(CC)CCn1nc2c3c(cccc3c1=O)-c1ccccc1-2`, the GI50 in the assay with MCF7 breast is 0.715 µM; with PC-3 prostate, 3.55 µM; in the assay with DU-145 prostate, 2.11 µM; in the assay on NCI/ADR-RES ovarian, 2.19 µM; in the assay with T-47D breast it was 2.06 µM. In addition, the TGI with MCF7 breast was 3.51 µM; in the assay with PC-3 prostate, 23.6 µM; in the assay on DU-145 prostate it was greater than 50 µM; in the assay with NCI/ADR-RES ovarian, 45.1 µM; in the assay with T-47D breast it was 27 µM.
Regarding `Clc1ccc2c(NCCNc3nc(Cl)nc4ccccc34)ccnc2c1`, the GI50 in the assay on PC-3 prostate is 1.6 µM; in the assay on DU-145 prostate, 1.26 µM; in the assay with NCI/ADR-RES ovarian, 2.5 µM; in the assay with T-47D breast, 1.39 µM. The TGI in the assay with PC-3 prostate was found to be 3.12 µM; with DU-145 prostate, 2.59 µM; in the assay with NCI/ADR-RES ovarian it was 7.24 µM; with T-47D breast, 3.34 µM.
Turning to `COC(=O)C1=C(C)NC(C)=C(C(=O)OC)C1c1ccccc1[N+](=O)[O-]`, the GI50 in the assay with MCF7 breast was greater than 100 µM; with PC-3 prostate, 50.3 µM; in the assay on DU-145 prostate it was greater than 100 µM; with NCI/ADR-RES ovarian, 49.3 µM; in the assay on T-47D breast, 50.9 µM. Moreover, the TGI in the assay on MCF7 breast, in the assay with PC-3 prostate, in the assay on DU-145 prostate, in the assay with NCI/ADR-RES ovarian and in the assay with T-47D breast was greater than 100 µM each time.
For `O=C(c1nc2ccccc2[nH]1)C1C(c2cccc([N+](=O)[O-])c2)C2CC3CCCCC3N2[C@@]12C(=O)Nc1cc(Cl)ccc12` (some centres not stated), the GI50 in the assay with MCF7 breast was 1.95 µM; in the assay with PC-3 prostate, 1.3 µM; in the assay on DU-145 prostate it was 1.55 µM; in the assay on NCI/ADR-RES ovarian, 2.51 µM; with T-47D breast, 0.998 µM. In addition, the TGI in the assay with MCF7 breast was 7.11 µM; with PC-3 prostate, 4.4 µM; in the assay on DU-145 prostate, 3.26 µM; with NCI/ADR-RES ovarian, 8.18 µM; in the assay on T-47D breast, greater than 100 µM.
With `CCOC(=O)CCC(NC(=O)c1ccc(Nc2nc3cc(N)cc(N)c3nc2-c2ccccc2)cc1)C(=O)OCC` (configuration not stated), the GI50 was 34.8 µM with MCF7 breast; 20.5 µM with PC-3 prostate; 65.8 µM in the assay on DU-145 prostate; 35 µM in the assay on NCI/ADR-RES ovarian; 6.7 µM in the assay with T-47D breast. For the same molecule, the TGI was greater than 100 µM in the assay with MCF7 breast; 89 µM in the assay with PC-3 prostate; greater than 100 µM with DU-145 prostate; greater than 79.1 µM in the assay on NCI/ADR-RES ovarian; greater than 22.1 µM in the assay on T-47D breast.
In the case of `Nc1ccc(Sc2ccc3c4c2cccc4c(=O)n2c4ccccc4nc32)cc1`, the GI50 in the assay with MCF7 breast was 2.71 µM; in the assay on PC-3 prostate, 2.67 µM; in the assay with DU-145 prostate it was 3.8 µM; with NCI/ADR-RES ovarian, 5.95 µM; in the assay with T-47D breast, 3.87 µM. The TGI in the assay with MCF7 breast turned out to be 35.3 µM; in the assay on PC-3 prostate, 21.7 µM; in the assay on DU-145 prostate, 14.1 µM; with NCI/ADR-RES ovarian it was 62.8 µM; in the assay with T-47D breast, 33.4 µM.
For the molecule `O=C(Nc1ccc(Oc2cccc(Cl)c2)c(Cl)c1)c1cccnc1`, the GI50 in the assay on MCF7 breast was 0.597 µM; with DU-145 prostate, 2.15 µM; in the assay on NCI/ADR-RES ovarian it was 1.28 µM; in the assay with T-47D breast, 1.91 µM. Moreover, the TGI in the assay on MCF7 breast is greater than 50 µM; with DU-145 prostate, 36 µM; in the assay on NCI/ADR-RES ovarian, 11.3 µM; in the assay on T-47D breast it was greater than 50 µM.
Regarding `COC(=O)C12CC(NC(=O)c3csc([C@@H](C[C@H](C(C)C)N(C)C(=O)[C@@H](NC(=O)[C@H]4CCCCN4C)C(C)C)OC(C)=O)n3)(C1)C2`, the GI50 is 0.000598 µM and 0.00333 µM in the assay with MCF7 breast; 0.00639 µM and 0.00333 µM with PC-3 prostate; 0.00165 µM and 0.00333 µM in the assay on DU-145 prostate; 0.147 µM in the assay on NCI/ADR-RES ovarian; 0.00407 µM in the assay on T-47D breast. The TGI in the assay on MCF7 breast, with PC-3 prostate, in the assay with DU-145 prostate and with NCI/ADR-RES ovarian was greater than 33.3 µM each time.
`Fc1ccc(-c2ncn(C3CCNCC3)c2-c2ccnc(Oc3ccc(Oc4ccccc4)cc3)n2)cc1`: the GI50 is 3.23 µM with MCF7 breast; 3.49 µM in the assay on PC-3 prostate; 4.2 µM with DU-145 prostate; 3.48 µM in the assay on NCI/ADR-RES ovarian; 4.45 µM in the assay on T-47D breast. Also, the TGI in the assay with MCF7 breast amounted to 6.9 µM; in the assay on PC-3 prostate, 6.87 µM; with DU-145 prostate it was 7.75 µM; in the assay on NCI/ADR-RES ovarian it was 7.04 µM; in the assay on T-47D breast it was 8.55 µM.
For `CCN1CCN(c2nc(NNC(=O)c3cccc(OC)c3)nc(N3CCN(C(c4ccccc4)c4ccccc4)CC3)n2)CC1`, the GI50 with PC-3 prostate was 2.24 µM; in the assay with DU-145 prostate, 2.67 µM; with NCI/ADR-RES ovarian, 2.42 µM; in the assay on T-47D breast, 2.27 µM. Moreover, the TGI in the assay with PC-3 prostate is 13.4 µM; in the assay with DU-145 prostate, 7.29 µM; in the assay on NCI/ADR-RES ovarian, 7.12 µM; in the assay with T-47D breast it was 7.18 µM.
Turning to `C/C(=C\COc1ccc2ccc(=O)oc2c1)CCC(=O)C(C)(C)O`, the TGI was 40.6 µM in the assay on MCF7 breast; greater than 100 µM in the assay on PC-3 prostate; greater than 100 µM in the assay with DU-145 prostate; greater than 100 µM with NCI/ADR-RES ovarian; greater than 100 µM with T-47D breast.
With `CCCCOc1nc2ccccc2cc1C1CNC(=O)c2ccccc2N1` (configuration not stated), the GI50 in the assay with MCF7 breast is 2.23 µM; in the assay with PC-3 prostate it was 2.95 µM; with DU-145 prostate it was 3.19 µM; with NCI/ADR-RES ovarian it was 2.12 µM; in the assay with T-47D breast, 5.55 µM. Also, the TGI with MCF7 breast is 15.4 µM; in the assay with PC-3 prostate, 13.9 µM; with DU-145 prostate it was 12 µM; in the assay on NCI/ADR-RES ovarian, 8.76 µM; in the assay on T-47D breast, greater than 100 µM.
As for `O=C1c2ccccc2-c2c1c1ccccc1c(=O)n2CCCNCCO`, the GI50 in the assay with MCF7 breast was 0.102 µM; in the assay on PC-3 prostate, 0.752 µM; with DU-145 prostate, 0.189 µM; in the assay on NCI/ADR-RES ovarian, 1.67 µM; in the assay with T-47D breast it was 1.05 µM. Moreover, the TGI with MCF7 breast worked out at 5.03 µM; with PC-3 prostate it was 4.47 µM; with DU-145 prostate it was 4.72 µM; in the assay with NCI/ADR-RES ovarian, 8.7 µM; with T-47D breast it was 7.58 µM.
As for `Cn1c(-c2cccs2)cc(-c2ccsc2)c1-c1ccsc1`, the TGI is greater than 100 µM with MCF7 breast; greater than 100 µM in the assay on PC-3 prostate; greater than 100 µM in the assay on DU-145 prostate; greater than 100 µM in the assay with NCI/ADR-RES ovarian; 59.6 µM in the assay on T-47D breast.
Turning to `COC(=O)[C@@H](C)C[C@H](Cc1ccccc1)NC(=O)c1csc([C@@H](C[C@H](C(C)C)N(C)C(=O)[C@@H](NC(=O)CN(C)C)C2CC2)OC(C)=O)n1`, the GI50 with MCF7 breast was 0.00258 µM; in the assay with PC-3 prostate it was 0.0267 µM; with DU-145 prostate it was 0.0169 µM; in the assay on NCI/ADR-RES ovarian, 13.4 µM; in the assay with T-47D breast, greater than 16.5 µM. Further, the TGI with MCF7 breast, in the assay with PC-3 prostate, with NCI/ADR-RES ovarian and in the assay on T-47D breast was greater than 16.5 µM in each case.
For the molecule `O=C(N/N=C\c1cc(Br)cc(Br)c1O)N/N=C/c1cc(Br)cc(Br)c1O`, the GI50 is 2.89 µM with MCF7 breast; 2.9 µM in the assay with PC-3 prostate; 4.63 µM with DU-145 prostate; 3.16 µM with NCI/ADR-RES ovarian; 4.02 µM in the assay with T-47D breast. The TGI came out at 12.3 µM in the assay with MCF7 breast; 16.7 µM in the assay with PC-3 prostate; 15.5 µM in the assay on DU-145 prostate; 16 µM in the assay with NCI/ADR-RES ovarian; 17.7 µM in the assay on T-47D breast.
Take `Clc1cc(-c2csc(Cl)c2)cs1`: the TGI in the assay with MCF7 breast, in the assay with PC-3 prostate, in the assay on DU-145 prostate and in the assay on NCI/ADR-RES ovarian was greater than 100 µM each time.
With `Cn1cc(C2=C(c3cn(C)c4cc(Cl)ccc34)C(=O)NC2=O)c2ccccc21`, the GI50 in the assay on MCF7 breast is 0.0972 µM; in the assay with PC-3 prostate, 0.0796 µM; in the assay with DU-145 prostate it was 0.119 µM; in the assay with NCI/ADR-RES ovarian, 0.0761 µM. For the same molecule, the TGI with MCF7 breast and in the assay on PC-3 prostate was greater than 25 µM throughout.
